Results taken from patent publication US20250270238A1, “A NEW BIFUNCTIONAL LINCHPIN THAT REACTS SELECTIVELY WITH CYSTEINE RESIDUES TO INVOKE CYCLIZATION WHILE CONCURRENTLY INTRODUCING A DOTAGA MOIETY FOR RADIOMETAL CHELATION” (The Governors of the University of Alberta, priority 2022, published 2025).

Target: recombinant human SSTR3 (Homo sapiens, UniProt P32745)
Experiment: [125I]SST14 radioligand binding competition, filtration-based
Text: This was accomplished using filtration-based assays against the radiolabeled peptide ^[125I]SST14. The reference compound used was the peptide SST28.
SiFALP was also used to cyclize octreotide in a model reaction (Scheme 6).

recombinant human SSTR3, sequence (P32745 whole entry): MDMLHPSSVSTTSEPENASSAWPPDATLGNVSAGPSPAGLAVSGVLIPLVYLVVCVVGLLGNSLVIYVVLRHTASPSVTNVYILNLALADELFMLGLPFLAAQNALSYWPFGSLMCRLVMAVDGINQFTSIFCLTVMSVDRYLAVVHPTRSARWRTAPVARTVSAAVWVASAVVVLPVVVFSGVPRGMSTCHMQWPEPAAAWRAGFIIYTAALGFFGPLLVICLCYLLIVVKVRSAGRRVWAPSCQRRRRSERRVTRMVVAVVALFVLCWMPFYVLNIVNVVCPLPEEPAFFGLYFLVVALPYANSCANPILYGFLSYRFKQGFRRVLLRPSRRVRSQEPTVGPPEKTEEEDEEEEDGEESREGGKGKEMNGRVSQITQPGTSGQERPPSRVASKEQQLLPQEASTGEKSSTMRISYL

C[C@@H](O)[C@@H]1NC(=O)[C@H](CCCCN)NC(=O)[C@@H](Cc2c[nH]c3ccccc23)NC(=O)[C@H](Cc2ccccc2)NC(=O)[C@@H](NC(=O)[C@H](N)Cc2ccccc2)CSC2=C(SC[C@@H](C(=O)N[C@H](CO)[C@@H](C)O)NC1=O)C(=O)N(Cc1cn(Cc3ccc([Si](F)(C(C)(C)C)C(C)(C)C)cc3)nn1)C2=O [Octreo-SiFA] was tested, and the IC50 was 0.211 µM.
